Consider ten compounds from the supplement of paper PMC4858399.

Structures can show the parent of a compound that is named as a salt.

Holding throughout (conditions): exposure time 48 h
Test [1] deals with Caenorhabditis elegans N2. In words: lowest effective concentration for larval growth inhibition (size below effect threshold); higher = less potent. In a few lines:
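Worm size was taken as per-worm extinction on the Biosort, log-transformed and turned into well means. The larvae (C. elegans N2, L1 stage, 50 per 96-well) had spent 48 h at 20°C in K-medium with killed bacteria, 1% DMSO and 0.5, 1, 5, 10, 50, 100 or 200 µM chemical. The lowest effective concentration marks the first dose where the plate-adjusted mean size drops under a cutoff and remains under it at every higher dose; the cutoff is 5.665.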

Test [2] has as its system Caenorhabditis elegans N2. The test can be described thus: mean nematode size ln(EXT) after 48 h, plate-adjusted (DMSO control set to 6) (ln(EXT), control-adjusted); higher = larger nematodes / less growth inhibition. The essentials: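 C. elegans N2 larvae, synchronised at L1, grew for 48 h at 20°C in K-medium with killed OP50, 1% DMSO and 0.5–200 µM chemical. Mean size per well was derived from natural-logged Biosort extinction after a growth model removed debris. Adjustment across plates involved subtracting the vehicle control mean and adding 6.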

In test [3] the test system is Caenorhabditis elegans N2. The test can be described thus: AC50 for larval growth inhibition (Hill fit); higher = less potent. The essentials:
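Worms were synchronised C. elegans N2 L1 larvae, 50 per well of a 96-well plate, kept 48 h at 20°C in K-medium with killed OP50, 1% DMSO and 0.5–200 µM chemical. Size was taken as COPAS Biosort extinction, log-transformed and averaged per well, using only wells with at least 10 worms. AC50 was estimated by a constrained Hill fit with weighted genetic-algorithm regression; values outside the range are censored.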

`O=S(=O)(O)C(F)(F)C(F)(F)C(F)(F)C(F)(F)C(F)(F)C(F)(F)F` [Potassium perfluorohexanesulfonate] displayed a lowest effective concentration in test [1] of 100 µM. The “mean nematode size ln(EXT) (ln)” value turned out to be 5.85 in test [2] (0.5 µM); 5.87 in test [2] (1 µM); 5.87 in test [2] (5 µM); 5.85 in test [2] (10 µM); 5.76 in test [2] (50 µM); 5.55 in test [2] (100 µM). Moreover, the “mean nematode size ln(EXT) (ln)” value in test [2] (200 µM) came to 5.31. Besides, the “AC50 for larval growth inhibition” value in test [3] is greater than 200 µM.
`Oc1ccc(Cl)cc1Cc1ccccc1` [Clorophene]: the lowest effective concentration in test [1] was 50 µM. Also, the “mean nematode size ln(EXT) (ln)” value in test [2] (0.5 µM) is 5.89; in test [2] (1 µM), 5.87; in test [2] (5 µM), 5.83; in test [2] (10 µM), 5.73; in test [2] (50 µM), 5.15; in test [2] (100 µM), 4.62. Moreover, in test [2] (200 µM), the “mean nematode size ln(EXT) (ln)” value stood at 3.79. In test [3], the “AC50 for larval growth inhibition” value came out at 92 µM.
`O=C(O)CC(O)C(=O)O` (stereo not given) [2-Hydroxybutanedioic acid]: the lowest effective concentration in test [1] amounted to 100 µM. Besides, the “mean nematode size ln(EXT) (ln)” value was 5.83 in test [2] (0.5 µM); 5.82 in test [2] (1 µM); 5.8 in test [2] (5 µM); 5.81 in test [2] (10 µM); 5.83 in test [2] (50 µM); 5.61 in test [2] (100 µM). Further, the “mean nematode size ln(EXT) (ln)” value in test [2] (200 µM) turned out to be 5.58. The “AC50 for larval growth inhibition” value in test [3] is greater than 200 µM.
Consider `ClC1(Cl)C2(Cl)C3(Cl)C4(Cl)C(Cl)(Cl)C5(Cl)C3(Cl)C1(Cl)C5(Cl)C24Cl` (stereo not given) [Mirex], for which the lowest effective concentration in test [1] was 50 µM. Moreover, the “mean nematode size ln(EXT) (ln)” value in test [2] (0.5 µM) is 5.34; in test [2] (1 µM) it was 5.5; in test [2] (5 µM), 5.57; in test [2] (10 µM), 6.06; in test [2] (50 µM), 5.56; in test [2] (100 µM), 5.51. The “mean nematode size ln(EXT) (ln)” value in test [2] (200 µM) came to 5.59. The “AC50 for larval growth inhibition” value in test [3] was greater than 200 µM.
On to `C=CCC1=C(C)C(OC(=O)C2C(C=C(C)C)C2(C)C)CC1=O` (stereo not given) [Allethrin], for which the lowest effective concentration in test [1] was determined as 50 µM. Further, the “mean nematode size ln(EXT) (ln)” value in test [2] (0.5 µM) came out at 5.9; in test [2] (1 µM) it was 5.91; in test [2] (5 µM), 5.87; in test [2] (10 µM), 5.86; in test [2] (50 µM), 5.64; in test [2] (100 µM), 5.59. The “mean nematode size ln(EXT) (ln)” value in test [2] (200 µM) came out at 5.23. Further, in test [3], the “AC50 for larval growth inhibition” value is greater than 200 µM.
Compound `Cc1ccccc1Cl` [2-Chlorotoluene] had a lowest effective concentration in test [1] of 200 µM. The “mean nematode size ln(EXT) (ln)” value in test [2] (0.5 µM) was 6.08; in test [2] (1 µM), 6.06; in test [2] (5 µM), 5.92; in test [2] (10 µM) it was 6.02; in test [2] (50 µM) it was 5.98; in test [2] (100 µM), 6.04. The “mean nematode size ln(EXT) (ln)” value in test [2] (200 µM) is 3.3. Moreover, in test [3], the “AC50 for larval growth inhibition” value turned out to be 178 µM.
In test [1], `Cn1cc(-c2ccccc2)c(=O)c(-c2cccc(C(F)(F)F)c2)c1` [Fluridone] returned a lowest effective concentration of 100 µM. In addition, the “mean nematode size ln(EXT) (ln)” value in test [2] (0.5 µM) was determined as 6; in test [2] (1 µM), 5.95; in test [2] (5 µM) it was 5.96; in test [2] (10 µM) it was 5.88; in test [2] (50 µM) it was 5.69; in test [2] (100 µM) it was 4.25. Besides, the “mean nematode size ln(EXT) (ln)” value in test [2] (200 µM) stood at 5.6. Besides, the “AC50 for larval growth inhibition” value in test [3] stood at 52 µM.
Compound `N=C(N)c1ccc(OCCCCCOc2ccc(C(=N)N)cc2)cc1` [Pentamidine isethionate salt] displayed a lowest effective concentration in test [1] of 50 µM. Also, the “mean nematode size ln(EXT) (ln)” value in test [2] (0.5 µM) came to 6.04; in test [2] (1 µM), 6.06; in test [2] (5 µM) it was 6; in test [2] (10 µM), 5.89; in test [2] (50 µM) it was 5.44; in test [2] (100 µM), 5.05. In test [2] (200 µM), the “mean nematode size ln(EXT) (ln)” value was determined as 4.25. In addition, the “AC50 for larval growth inhibition” value in test [3] came out at 149 µM.
In test [1], `O=[N+]([O-])c1ccccc1` [Nitrobenzene] registered a lowest effective concentration of 200 µM. For the same compound, the “mean nematode size ln(EXT) (ln)” value in test [2] (0.5 µM) amounted to 6.01; in test [2] (1 µM), 5.97; in test [2] (5 µM), 6.01; in test [2] (10 µM), 6.12; in test [2] (50 µM) it was 6.23; in test [2] (100 µM), 6.14. The “mean nematode size ln(EXT) (ln)” value in test [2] (200 µM) worked out at 5.65. In addition, the “AC50 for larval growth inhibition” value in test [3] is 193 µM.
`CCCCCCCCN(C)CCCCCCCC` [N-Methyldioctylamine] displayed a lowest effective concentration in test [1] of 200 µM. In addition, the “mean nematode size ln(EXT) (ln)” value worked out at 5.78 in test [2] (0.5 µM); 5.86 in test [2] (1 µM); 5.87 in test [2] (5 µM); 5.75 in test [2] (10 µM); 5.78 in test [2] (50 µM); 5.83 in test [2] (100 µM). In test [2] (200 µM), the “mean nematode size ln(EXT) (ln)” value amounted to 4.13. In addition, the “AC50 for larval growth inhibition” value in test [3] came out at 182 µM.
